{"source": "paper PMC7044277", "about": "(Nature Communications, 2020)", "key": {"DRD3 F1063.28A": {"molecular_target": "DRD3 F1063.28A (Homo sapiens, UniProt P35462, F106A)", "sequence (P35462 whole entry F106A)": "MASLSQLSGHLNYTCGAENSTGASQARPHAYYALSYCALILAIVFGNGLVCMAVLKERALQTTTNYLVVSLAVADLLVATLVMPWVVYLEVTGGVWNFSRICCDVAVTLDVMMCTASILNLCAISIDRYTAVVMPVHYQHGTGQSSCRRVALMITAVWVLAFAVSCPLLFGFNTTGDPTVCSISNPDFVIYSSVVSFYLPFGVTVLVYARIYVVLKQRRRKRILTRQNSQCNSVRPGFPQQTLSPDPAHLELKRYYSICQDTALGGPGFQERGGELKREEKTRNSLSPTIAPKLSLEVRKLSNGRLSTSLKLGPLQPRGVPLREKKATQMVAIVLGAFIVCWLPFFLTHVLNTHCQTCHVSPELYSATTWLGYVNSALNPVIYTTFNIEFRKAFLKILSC", "experiment": "biochemical", "assay_type": "binding"}, "DRD2 F1103.28L": {"molecular_target": "T1, DRD2 F1103.28L (Homo sapiens, UniProt P14416, F110L)", "T1 construct": "expressed in transfected cells; host or cells: HEK293T (ATCC CRL-11268)", "T1 sequence (P14416 whole entry F110L)": "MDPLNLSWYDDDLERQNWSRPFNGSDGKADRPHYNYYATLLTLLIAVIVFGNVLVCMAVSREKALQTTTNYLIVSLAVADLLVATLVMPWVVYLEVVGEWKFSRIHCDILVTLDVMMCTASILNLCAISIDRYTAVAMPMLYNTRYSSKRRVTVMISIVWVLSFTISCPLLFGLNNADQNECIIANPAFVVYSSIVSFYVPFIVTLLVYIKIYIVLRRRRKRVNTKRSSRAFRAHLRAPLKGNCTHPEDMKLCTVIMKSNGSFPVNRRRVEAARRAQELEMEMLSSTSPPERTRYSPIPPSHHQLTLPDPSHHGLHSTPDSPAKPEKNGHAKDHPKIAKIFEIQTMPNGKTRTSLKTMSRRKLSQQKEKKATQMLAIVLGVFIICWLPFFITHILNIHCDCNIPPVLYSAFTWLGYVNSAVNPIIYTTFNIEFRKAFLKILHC", "experiment": "β-arrestin2 recruitment (Tango), mutant", "assay_type": "cell-based"}, "5HT1A": {"molecular_target": "T2, 5HT1A (Homo sapiens, UniProt P08908)", "T2 construct": "expressed in transfected cells; host or cells: HTLA cells expressing TEV-fused β-arrestin2", "T2 sequence (P08908 1-422)": "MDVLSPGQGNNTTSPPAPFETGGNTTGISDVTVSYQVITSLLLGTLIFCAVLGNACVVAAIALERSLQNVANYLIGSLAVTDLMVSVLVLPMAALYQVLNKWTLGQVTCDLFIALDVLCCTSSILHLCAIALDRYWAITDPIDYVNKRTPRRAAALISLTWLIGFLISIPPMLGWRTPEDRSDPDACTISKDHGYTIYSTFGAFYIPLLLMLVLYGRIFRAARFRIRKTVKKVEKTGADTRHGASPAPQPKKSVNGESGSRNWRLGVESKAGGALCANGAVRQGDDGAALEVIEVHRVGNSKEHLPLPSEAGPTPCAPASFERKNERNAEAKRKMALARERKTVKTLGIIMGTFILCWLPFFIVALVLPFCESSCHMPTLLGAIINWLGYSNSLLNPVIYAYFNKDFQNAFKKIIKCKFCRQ", "experiment": "β-arrestin2 recruitment (Tango)", "assay_type": "cell-based", "conditions": "Fig_S10f, single replicates"}, "5HT1E": {"molecular_target": "5HT1E (Homo sapiens, UniProt P28566)", "sequence (P28566 whole entry)": "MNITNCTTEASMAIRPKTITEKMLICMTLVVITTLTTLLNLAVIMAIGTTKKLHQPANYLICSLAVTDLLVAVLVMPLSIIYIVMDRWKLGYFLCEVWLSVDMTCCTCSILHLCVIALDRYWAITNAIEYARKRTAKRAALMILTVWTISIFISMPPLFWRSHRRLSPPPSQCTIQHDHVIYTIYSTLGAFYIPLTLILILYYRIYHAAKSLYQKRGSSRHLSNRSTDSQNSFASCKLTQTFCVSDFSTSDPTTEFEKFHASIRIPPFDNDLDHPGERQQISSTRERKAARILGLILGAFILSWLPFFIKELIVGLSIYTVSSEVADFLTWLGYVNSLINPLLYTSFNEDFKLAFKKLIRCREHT", "experiment": "β-arrestin2 recruitment (Tango)", "assay_type": "cell-based", "conditions": "Fig_S10i"}, "5HT2A": {"molecular_target": "5HT2A (Homo sapiens, UniProt P28223)", "sequence (P28223 whole entry)": "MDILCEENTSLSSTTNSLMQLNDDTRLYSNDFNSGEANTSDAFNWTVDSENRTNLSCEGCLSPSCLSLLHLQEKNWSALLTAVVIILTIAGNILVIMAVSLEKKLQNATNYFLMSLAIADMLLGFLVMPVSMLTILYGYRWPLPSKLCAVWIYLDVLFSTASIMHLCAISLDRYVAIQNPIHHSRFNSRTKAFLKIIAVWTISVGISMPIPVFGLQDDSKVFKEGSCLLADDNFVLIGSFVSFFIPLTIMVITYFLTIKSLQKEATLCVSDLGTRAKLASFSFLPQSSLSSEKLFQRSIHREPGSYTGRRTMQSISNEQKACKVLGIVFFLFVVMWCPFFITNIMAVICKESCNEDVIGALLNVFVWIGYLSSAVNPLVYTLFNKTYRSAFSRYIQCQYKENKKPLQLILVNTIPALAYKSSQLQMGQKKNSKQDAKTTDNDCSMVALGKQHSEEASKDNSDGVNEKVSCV", "experiment": "β-arrestin2 recruitment (Tango)", "assay_type": "cell-based", "conditions": "single replicate values"}, "5HT4": {"molecular_target": "T3, 5HT4 (Homo sapiens, UniProt Q13639)", "T3 construct": "expressed in transfected cells; host or cells: HTLA cells expressing TEV-fused β-arrestin2", "T3 sequence (Q13639 whole entry, the tested form may be a part)": "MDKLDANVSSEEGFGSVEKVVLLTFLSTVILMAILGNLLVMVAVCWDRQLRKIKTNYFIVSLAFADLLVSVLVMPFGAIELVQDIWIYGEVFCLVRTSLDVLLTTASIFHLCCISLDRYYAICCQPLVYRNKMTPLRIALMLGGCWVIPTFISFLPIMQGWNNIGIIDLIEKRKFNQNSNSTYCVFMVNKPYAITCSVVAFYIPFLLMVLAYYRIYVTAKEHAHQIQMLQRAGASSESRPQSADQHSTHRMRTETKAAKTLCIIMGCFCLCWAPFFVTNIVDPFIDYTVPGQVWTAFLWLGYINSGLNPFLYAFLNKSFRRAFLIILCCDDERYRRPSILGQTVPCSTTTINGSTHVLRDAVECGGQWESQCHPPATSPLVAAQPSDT", "experiment": "β-arrestin2 recruitment (Tango)", "assay_type": "cell-based", "conditions": "Fig_S10n; for β-arrestin2 recruitment response in presence of serotonin (replicate values): +10μM serotonin"}}, "note": "pEC50, pKi: −log10 of the molar value. Several values for one entry are separate records, joined by “and”; a condition that tells them apart may be missing. Equal entries are not always repeated.", "data": [{"compound": "CCOc1cccc2cc([C@H](C)NCC3(O)CCCCC3)oc12", "note": "[O4SE6]", "values": [{"measurement": "pKi", "setting": "DRD3 F1063.28A", "value": 5.72}, {"measurement": "pEC50", "setting": "DRD2 F1103.28L", "value": "< 5.00"}, {"measurement": "β-arrestin2 recruitment response, agonist mode (normalized)", "setting": "5HT1A; Log[Drug] -9.52", "value": "-0.8354 and -0.6725 and 0.6683 and 0.2383 and 1.852 and 0.7592 and 0.2273 and 0.7234 and 0.9859"}, {"measurement": "β-arrestin2 recruitment response, agonist mode (normalized)", "setting": "5HT1A; Log[Drug] -10", "value": "0.6642 and 0.6683 and -0.5096 and -0.1895 and -0.3206 and 1.295 and 0.9379 and 4.834 and 0.8483"}, {"measurement": "β-arrestin2 recruitment response, agonist mode (normalized)", "setting": "5HT1A; Log[Drug] -10.52", "value": "0.8312 and -0.848 and -0.5013 and 0.469 and 0.1267 and -0.3585 and 11.6165 and 0.685 and 0.3585"}, {"measurement": "β-arrestin2 recruitment response, agonist mode (normalized)", "setting": "5HT1A; Log[Drug] -11", "value": "-0.188 and 0.8354 and -0.1713 and -0.4961 and -0.2339 and 0.4322 and 2.113 and 0.3457 and 0.4834"}, {"measurement": "β-arrestin2 recruitment response, agonist mode (normalized)", "setting": "5HT1A; Log[Drug] -11.52", "value": "1.3325 and -0.1754 and -0.6683 and -0.2719 and 3.032 and -0.4646 and -0.4129 and 1.767 and 1.504"}, {"measurement": "β-arrestin2 recruitment response, agonist mode (normalized)", "setting": "5HT1A; Log[Drug] -12", "value": "0.1671 and -0.9983 and -0.6683 and -0.2567 and -0.0639 and 2.424 and -0.7778 and 0.7554 and 0.3457"}, {"measurement": "β-arrestin2 recruitment response, agonist mode (single replicate values)", "setting": "5HT1E; Log[Drug] -5.52", "value": 0.8358}, {"measurement": "β-arrestin2 recruitment response, agonist mode (single replicate values)", "setting": "5HT1E; Log[Drug] -6", "value": "-1.216 and -11.5535 and -10.8591 and -6.779 and -25.5686 and -12.8268 and -17.4797 and -14.3235 and -24.758"}, {"measurement": "β-arrestin2 recruitment response, agonist mode (single replicate values)", "setting": "5HT1E; Log[Drug] -6.52", "value": "-5.589 and -4.67 and -2.933 and -14.8207 and -0.8192 and -17.7203 and -10.9861 and -19.449 and -21.9113"}, {"measurement": "β-arrestin2 recruitment response, agonist mode (single replicate values)", "setting": "5HT1E; Log[Drug] -7", "value": "-10.5885 and -12.0267 and -4.043 and -9.048 and -20.5356 and 41.9563 and -10.9581 and -15.0865 and -7.033"}, {"measurement": "β-arrestin2 recruitment response, agonist mode (single replicate values)", "setting": "5HT1E; Log[Drug] -7.52", "value": "-6.825 and 5.648 and -4.719 and -12.9295 and 12.6751 and -7.089 and -18.5156 and -18.3717 and -21.8227"}, {"measurement": "β-arrestin2 recruitment response, agonist mode (single replicate values)", "setting": "5HT1E; Log[Drug] -8", "value": "-7.977 and -8.538 and -9.216 and -19.7126 and -7.765 and -29.5609 and -0.3541 and 4.202 and -14.1998"}, {"measurement": "β-arrestin2 recruitment response, agonist mode (single replicate values)", "setting": "5HT1E; Log[Drug] -8.52", "value": "-8.057 and -8.967 and 2.216 and 9.159 and -4.385 and 8.583 and -6.33 and -6.852 and -26.8276"}, {"measurement": "β-arrestin2 recruitment response, agonist mode (single replicate values)", "setting": "5HT1E; Log[Drug] -9", "value": "0.8147 and -7.106 and -2.942 and -13.4536 and -20.6306 and -0.4912 and -5.667 and -8.764 and -8.801"}, {"measurement": "β-arrestin2 recruitment response, agonist mode (single replicate values)", "setting": "5HT1E; Log[Drug] -9.52", "value": "-5.189 and -0.1954 and -0.3872 and -6.065 and -25.1931 and 34.39 and 6.445 and -12.4444 and -9.8607"}, {"measurement": "β-arrestin2 recruitment response, agonist mode (single replicate values)", "setting": "5HT1E; Log[Drug] -10", "value": "5.7233 and -7.338 and -6.569 and -5.352 and 52.7977 and 2.248 and -7.089 and -2.873 and 1.262"}, {"measurement": "β-arrestin2 recruitment response, agonist mode (single replicate values)", "setting": "5HT1E; Log[Drug] -10.52", "value": "-5.082 and -6.296 and 10.3259 and -3.566 and -12.7533 and -11.9533 and -23.7764 and -18.6704 and -6.074"}, {"measurement": "β-arrestin2 recruitment response, agonist mode (single replicate values)", "setting": "5HT1E; Log[Drug] -11", "value": "-1.572 and -7.387 and 4.824 and -17.5471 and -8.254 and 2.626 and -10.6703 and -5.6779 and -4.661"}, {"measurement": "Fig_S10k dose-response, drug alone (agonist mode), β-arrestin2 recruitment", "setting": "5HT2A; Log[Drug] -6.52", "value": 0.09538}, {"measurement": "Fig_S10k dose-response, drug alone (agonist mode), β-arrestin2 recruitment", "setting": "5HT2A; Log[Drug] -7", "value": "0.3962 and -0.2054 (2×) and 5.128 and 7.247 and 2.453 and 3.603 and 2.6312 and 1.871"}, {"measurement": "Fig_S10k dose-response, drug alone (agonist mode), β-arrestin2 recruitment", "setting": "5HT2A; Log[Drug] -7.52", "value": "1.849 and 5.363 and 7.4248 and 2.33 and -2.369 and -1.196 and 2.4436 and 3.608 and 1.304"}, {"measurement": "Fig_S10k dose-response, drug alone (agonist mode), β-arrestin2 recruitment", "setting": "5HT2A; Log[Drug] -8", "value": "0.1101 and -1.394 and 0.08804 and 0.4387 and -1.323 and -0.5329 and 3.218 and 3.021 and 2.073"}, {"measurement": "Fig_S10k dose-response, drug alone (agonist mode), β-arrestin2 recruitment", "setting": "5HT2A; Log[Drug] -8.52", "value": "0.3815 and 3.632 and -0.1981 and 19.2051 and 7.825 and 6.317 and 2.439 and 3.208 and 2.251"}, {"measurement": "Fig_S10k dose-response, drug alone (agonist mode), β-arrestin2 recruitment", "setting": "5HT2A; Log[Drug] -9", "value": "0.6676 and 2.15 and 0.4035 and 0.1625 and 2.551 and 3.851 and 2.828 and 4.478 and 2.251"}, {"measurement": "Fig_S10k dose-response, drug alone (agonist mode), β-arrestin2 recruitment", "setting": "5HT2A; Log[Drug] -9.52", "value": "4.806 and 0.08804 and -0.4842 and 4.631 and 0.2307 and -0.1755 and 1.9722 and 24.5707 and 1.991"}, {"measurement": "Fig_S10k dose-response, drug alone (agonist mode), β-arrestin2 recruitment", "setting": "5HT2A; Log[Drug] -10", "value": "-0.2054 and -0.7704 and 0.7117 and -0.5849 and 0.2632 and -1.306 and 3.401 and 3.333 and 0.9043"}, {"measurement": "Fig_S10k dose-response, drug alone (agonist mode), β-arrestin2 recruitment", "setting": "5HT2A; Log[Drug] -10.52", "value": "-0.4696 and 0.1247 and -0.7704 and 2.297 and 0.5134 and 0.234 and 6.104 and 1.842 and 5.349"}, {"measurement": "Fig_S10k dose-response, drug alone (agonist mode), β-arrestin2 recruitment", "setting": "5HT2A; Log[Drug] -11", "value": "-0.4842 and -0.7704 and -1.0785 and -0.00325 and -1.534 and 4.039 and 3.002 and 2.646 and 1.477"}, {"measurement": "Fig_S10k dose-response, drug alone (agonist mode), β-arrestin2 recruitment", "setting": "5HT2A; Log[Drug] -11.52", "value": "-0.2421 and 0.9685 and 5.092 and -0.6109 and 22.6335 and -1.787 and 6.47 and 2.973 and 3.016"}, {"measurement": "Fig_S10k dose-response, drug alone (agonist mode), β-arrestin2 recruitment", "setting": "5HT2A; Log[Drug] -12", "value": "13.3089 and 0.9391 and 1.555 and -1.157 and -0.9684 and -1.794 and 7.23 and 11.8669 and 5.71"}, {"measurement": "β-arrestin2 recruitment response in presence of serotonin (replicate values)", "setting": "5HT4; Log[Drug] -6.52", "value": 72.8962}, {"measurement": "β-arrestin2 recruitment response (dose-response source data, replicate values)", "setting": "5HT4; Log[Drug] -6.52, drug alone", "value": 1.101}, {"measurement": "β-arrestin2 recruitment response in presence of serotonin (replicate values)", "setting": "5HT4; Log[Drug] -7", "value": "68.214 and 69.7519 and 58.0435 and 78.1719 and 67.5552 and 58.9312 and 58.5479 and 62.6911 and 62.3338"}]}]}
